Data taken from patent US20250312412A1, “METHODS FOR TREATING DRY EYE DISEASE” (The Schepens Eye Research Institute, Inc., priority 2022, published 2025).
Residues, ends and D or L forms follow the SMILES beside them.

Experiments:
[1] = tested on: human corneal epithelial cells; test: Co-culture of human corneal epithelial cells and Th17 cells, density and morphology by microscopy, Examples 2 and 3; type: cell-based; conditions: 0.1 μM, 1 μM, 10 μM and 100 μM; 24 hours
Description: A co-culture of human corneal epithelial cells and Th17 cells was prepared, to mimic the in vivo interaction between Th17 cells and cornea tissue in dry eye disease. The therapeutic efficacy of an IL-17 inhibitor to protect the human corneal epithelial cells from Th17-induced damage was tested. Immortalized human corneal epithelial cells were obtained. To acquire human Th17 cells, naïve CD4+ T cells were first purified from primary human peripheral blood mononuclear cells (StemCell) by negative selection using MACS separation, follow by in vitro polarization to Th17 cells using human Th17 cell differentiation kit (RnD Systems) in X-VIVO 15 medium (Lonza). Successful differentiation of human Th17 cells was confirmed by flow cytometry before co-culture. At about 80% confluence of human corneal epithelial cell culture, 1×10^5 Th17 cells were added, with and without an IL-17 inhibitor. After 24 hours of co-culture in the presence of the IL-17 inhibitor, the density and morphology of human corneal epithelial cells were observed under a bright-light inverted microscope equipped with a camera.
A co-culture of human corneal epithelial cells and Th17 cells was prepared, to mimic the in vivo interaction between Th17 cells and cornea tissue in dry eye disease. The therapeutic efficacy of an IL-17 inhibitor to protect the human corneal epithelial cells from Th17-induced damage was tested. […]

[2] = tested on: goblet cells; test: Goblet cell count in conjunctival tissue sections of dry eye mice, Example 1; type: in vivo; conditions: conjunctiva, mice with dry eye disease treated twice daily
Description: With continued reference to the study of Example 1, ocular tissue was harvested from the mice and tissue sections were prepared for microscopy analysis. Cross-sections of the conjunctiva were stained and the images were inspected to quantify goblet cell density. Goblet cells within the conjunctival epithelium secrete mucins onto the surface of the eye. FIG. 3A is an image of conjunctiva from a healthy mouse with no dry eye disease, and the goblet cells are visible as the darkly stained, plump cells. FIGS. 3B-3E are images from the conjunctiva from a subject in the animals with dry eye disease and treated twice daily with saline as a control (FIG. 3B), cyclosporine ophthalmic emulsion (RESTASIS®; FIG. 3C), lifitegrast ophthalmic solution (XIIDRA®) (FIG. 3D), or anti-IL-17A antibody (FIG. 3E). The numbers of goblet cells were counted, and FIG. 3F is a bar graph of the percent of normal goblet cells for the normal (healthy) mice and mice with dry eye disease treated with saline, cyclosporine, lifitegrast or an IL-17A inhibitor. […] Subjects with dry eye disease and treated with cyclosporine or with lifitegrast had about 60% of the normal number of goblet cells. […]

[3] = tested on: mice induced with dry eye disease; test: Corneal fluorescein staining (CFS) score in mice with induced dry eye disease, Example 1; type: in vivo; conditions: topical to the eye, day 4 to day 12; antibody 1 wt % once or twice daily, lifitegrast 5 wt % twice daily, cyclosporine 0.05 wt % twice daily
Description: FIG. 1 is a graph of corneal fluorescein staining (CFS) scored using the National Eye Institute Industry Workshop Scale of 0-15, as a function of time, in days, in mice induced with dry eye disease by placing them in a controlled-environment chamber (relative humidity: <20%, dry airflow: 15 L/min, temperature: 21˜23° C.) for 14 days. Corneal epithelial disease was evaluated using corneal fluorescein staining (CFS) and scored using the National Eye Institute Industry Workshop Scale of 0-15, at day 0 (normal baseline), day 4 (before instillation of topical therapy), day 7, day 10, and […] in mice treated by topical application to the eye with an anti-IL-17A antibody once daily (closed circles) or twice daily (closed squares), lifitegrast (XIIDRA®) twice daily (inverted triangles), cyclosporine (RESTASIS®) twice daily (triangles), or saline twice daily (diamonds).
In a first study, described in Example 1, treatment of dry eye disease with an IL-17 cytokine inhibitor, lifitegrast ophthalmic solution (XIIDRA®), and cyclosporine ophthalmic emulsion (RESTASIS®) were compared. […] The test compounds were applied topically to the eye for 9 days (from day 4 to day 12), and disease severity was evaluated using corneal fluorescein staining (CFS) and scored using the National Eye Institute Industry Workshop Scale of 0-15 on days 4, 7, 10 and 12. […]

Row | Compound | toxicity to human corneal epithelial cells [1] | goblet cells, percent of the normal number [2] | effect on dry eye disease severity (disease score, CFS) [3]
1 | CC[C@H](C)[C@H](NC(=O)[C@H](Cc1c[nH]c2ccccc12)NC(=O)[C@H](CC(=O)O)NC(=O)[C@H](Cc1c[nH]c2ccccc12)NC(=O)[C@H](CC(C)C)NC(=O)[C@H](CC(=O)O)NC(=O)[C@H](C)NC(=O)[C@@H]1CCCN1C(=O)[C@@H](NC(=O)[C@@H](NC(=O)[C@@H](NC(=O)[C@H](Cc1c[nH]cn1)NC(=O)[C@@H](N)C(C)C)C(C)C)[C@@H](C)O)[C@@H](C)CC)C(=O)N[C@@H](CC(N)=O)C(=O)N[C@@H](CCCCN)C(=O)O [SEQ ID NO: 1, VHVTIPADLWDWINK] (H-VHVTIPADLWDWINK-OH) | not toxic to the human corneal epithelial cells |  | 
2 | CS(=O)(=O)c1cccc(C[C@H](NC(=O)c2c(Cl)cc3c(c2Cl)CCN(C(=O)c2ccc4ccoc4c2)C3)C(=O)O)c1 [lifitegrast] |  | about 60% | no improvement in reducing in disease severity for the first six days of treatment, followed by an improved disease score at day 12
